In paper PMC12096834, “Antimicrobial peptide plectasin recombinantly produced in Escherichia coli disintegrates cell walls of gram-positive bacteria, as proven by transmission electron and atomic force microscopy” (Journal of Bacteriology, 2025):
Read-outs that look alike come from different tables or passages of the source.

Type: physicochemical
Method: IMAC elution buffer was exchanged five times against PBS (137 mM NaCl, […], 2.7 mM KCl, and pH 7.4) with nominal 3 kDa cut-off in Amicon Ultra spin vials (Merck, Darmstadt, Germany). The buffer was exchanged discontinuously until the imidazole concentration was below 10 mM. To prevent loss in the form of precipitated plectasin, the CASPON-plectasin was diluted with PBS to a final concentration of 3.2 mg/mL.
The buffer exchanged solution was treated by digesting CASPON-plectasin, using a 1:100 (mol/mol) dilution of the CASPON enzyme per peptide at 37°C for 12 hours. To prevent caspase oxidation and to facilitate the cleavage process, dithiothreitol (DTT) was added to a final concentration of 1 mM DTT. The temperature was maintained by using an Eppendorf Thermoblock (Hamburg, Germany). The CASPON enzyme is a modification of T7AC-6H cpCasp2, which is described by Cserjan-Puschmann et al. ([28]).
The same RP-HPLC method described by Müller et al. ([24]) was employed for CASPON-plectasin/plectasin quantification. For CASPON-plectasin and plectasin, the concentrations 1, 0.5, 0.25, 0.125, and 0.0625 g/L were utilized to construct the calibration curve.
1.6 CASPON®-plectasin cleavage conditions […]
plectasin is limited to […].
Figure S5 Cleavage experiment using CASPON®-plectasin to examine the potential cleavage of plectasin. The calculated possible plectasin was based on the used CASPON®-plectasin mass (4 g/L), assuming no losses and employing stoichiometric principles.
The temperature and CASPONT® enzyme ratio (C. R.) were varied for the cleavage process. […]
the highest achievable plectasin concentration was 1.6 g/L. This outcome is consistent with the findings of a previous study (Mygind et al. 2005), which postulated that the solubility maximum of plectasin is approximately 1.6 g/L. However, an increase in DTT beyond this concentration […]
(1 picture or pasted object on this page, not shown here)

## CC[C@H](C)[C@@H]1NC(=O)[C@H](CO)NC(=O)[C@H](CCCCN)NC(=O)[C@@H]2CSSC[C@@H](C(=O)N[C@@H](Cc3ccc(O)cc3)C(=O)O)NC(=O)[C@H](CCCCN)NC(=O)[C@@H]3CSSC[C@H](NC(=O)[C@H](CCC(N)=O)NC(=O)[C@H](CCSC)NC(=O)[C@H](CC(=O)O)NC(=O)[C@H](CC(=O)O)NC(=O)[C@H](CCC(=O)O)NC(=O)[C@H](CC(=O)O)NC(=O)[C@H](Cc4c[nH]c5ccccc45)NC(=O)[C@@H]4CCCN4C(=O)CNC(=O)[C@H](CC(N)=O)NC(=O)[C@@H](NC(=O)CNC(=O)[C@H](Cc4ccccc4)NC(=O)CN)CSSC[C@H](NC(=O)[C@H](Cc4ccc(O)cc4)NC(=O)CNC(=O)CNC(=O)[C@H](CCCCN)NC(=O)[C@H](Cc4ccc(O)cc4)NC(=O)CNC(=O)[C@H](CCCCN)NC1=O)C(=O)N[C@@H](C)C(=O)N[C@@H](CCCCN)C(=O)NCC(=O)NCC(=O)N[C@@H](Cc1ccccc1)C(=O)N[C@@H](C(C)C)C(=O)N3)C(=O)N[C@@H](Cc1c[nH]cn1)C(=O)N[C@@H](CC(N)=O)C(=O)N[C@@H](Cc1c[nH]cn1)C(=O)N2 [Plectasin, plectasin]
Any selected cleavage condition (temperature and CASPON enzyme ratio varied), without DTT, from 4 g/L CASPON-plectasin, preliminary experiments, Fig. S5
  highest achievable plectasin concentration after CASPON-tag cleavage: 1.5 g/L
In the CASPON enzyme-based tag removal step (PBS pH 7.4, 37°C)
  solubility of plectasin: ~ 1.6 g/L
With 1 mM DTT as supporting agent, Fig. S6
  highest achievable plectasin concentration after CASPON-tag cleavage: 1.6 g/L
